Laboratory results taken from patent publication US12157746B2, “Tetrahydro-1H-pyrazino[2,1-a]isoindolylquinoline compounds for the treatment of autoimmune disease” (F. HOFFMANN-LA ROCHE AG, priority 2018, dated 2024).

Test: Human microsomal stability assay
Type: in vitro ADME
Settings: human liver microsomes 0.5 mg/mL, 37° C., pH 7.4, NADPH regenerating system, 0-30 minutes
Description: Human Microsomal Stability Assay
Human liver microsomes (Cat. NO.: 452117, Corning, USA) were preincubated with test compound for 10 minutes at 37° C. in 100 mM potassium phosphate buffer, pH 7.4. The reactions were initiated by adding NADPH regenerating system. The final incubation mixtures contained […] test compound, 0.5 mg/mL liver microsomal protein, 1 mM MgCl2, 1 mM NADP, 1 unit/mL isocitric dehydrogenase and 6 mM isocitric acid in 100 mM potassium phosphate buffer, pH 7.4. After incubation times of 0, 3, 6, 9, 15 and 30 minutes at 37° C., 300 μL of cold ACN (including internal standard) was added to 100 μL incubation mixture to terminate the reaction. Following precipitation and centrifugation, 100 μL supernatant will be taken out and added 300 uL water. The amount of compound remaining in the samples was determined by LC-MS/MS. Controls of no NADPH regenerating system at zero and 30 minutes were also prepared and analyzed. The results were categorized as: low (<7.0 mLJmin/kg), medium (7.0-16.2 mL/min/kg) and high (16.2-23.2 mLJmin/kg).

| SMILES | CL (h) [mL/min/kg] |
| --- | --- |
| C[C@@H]1CN(c2ccc(C#N)c3ncccc23)C[C@@H]2c3ccc(OC4CNC4)cc3CN12 [Example 27, 5-[(4R,10bS)-8-(azetidin-3-yloxy)-4-methyl-3,4,6,10b-tetrahydro-1H-pyrazino[2,1-a]isoindol-2-yl]quinoline-8-carbonitrile] | 7.7 |
| C[C@@H]1CN(c2ccc(C#N)c3ncccc23)C[C@@H]2c3ccc(C(=O)N4C[C@@H]5C[C@H]4CN5)cc3CN12 [Example 87, 5-[(4R,10bS)-8-[(1S,4S)-2,5-diazabicyclo[2.2.1]heptane-2-carbonyl]-4-methyl-3,4,6,10b-tetrahydro-1H-pyrazino[2,1-a]isoindol-2-yl]quinoline-8-carbonitrile] | 8.0 |
| C[C@@H]1CN(c2ccc(C#N)c3ncccc23)C[C@@H]2c3ccc(C(=O)N4CCNCC4)cc3CN12 [Example 86, 5-[(4R,10bS)-4-methyl-8-(piperazine-1-carbonyl)-3,4,6,10b-tetrahydro-1H-pyrazino[2,1-a]isoindol-2-yl]quinoline-8-carbonitrile] | 7.7 |
| C[C@@H]1CN(c2ccc(C#N)n3nccc23)C[C@@H]2c3ccc(N4CCC(C)(N)CC4)cc3CN12 [Example 100, 4-[(4R,10bS)-8-(4-amino-4-methyl-1-piperidyl)-4-methyl-3,4,6,10b-tetrahydro-1H-pyrazino[2,1-a]isoindol-2-yl]pyrazolo[1,5-a]pyridine-7-carbonitrile] | 8.0 |
